Test results reported in the supplement of paper PMC10733146.

Key:
Assay in all cases: viability relative to DMSO control (fraction); higher = less drug effect (more viable cells)
Details in all cases: 48 h
CPI-169 = compound: CCS(=O)(=O)N1CCC([C@@H](C)n2c(C)c(C(=O)NCc3c(OC)cc(C)[nH]c3=O)c3ccccc32)CC1 [CPI-169]
Summary of the method: (§1)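 Compounds were pre-plated at five concentrations, one well each, in 384-well plates, and primary mononuclear tumour cells were plated on them at 4 × 10^4 cells per well. The cells, fresh or cryopreserved, had been Ficoll-isolated from blood or bone marrow or taken from processed lymph node. After 48 h at 37 °C and 5% CO2 in RPMI-1640 with penicillin/streptomycin, L-glutamine and human serum, viability was read as CellTiter-Glo luminescence relative to the median of 16 inner DMSO wells.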

Tofacitinib = compound: C[C@@H]1CCN(C(=O)CC#N)C[C@@H]1N(C)c1ncnc2[nH]ccc12 [Tofacitinib]
Summary of the method: as §1

Everolimus = compound: CO[C@H]1C[C@@H]2CC[C@@H](C)[C@@](O)(O2)C(=O)C(=O)N2CCCC[C@H]2C(=O)O[C@H]([C@H](C)C[C@@H]2CC[C@@H](OCCO)[C@H](OC)C2)CC(=O)[C@H](C)/C=C(\C)[C@@H](O)[C@@H](OC)C(=O)[C@H](C)C[C@H](C)/C=C/C=C/C=C/1C [Everolimus]
Summary of the method: as §1

EPZ-6438 = compound: CCN(c1cc(-c2ccc(CN3CCOCC3)cc2)cc(C(=O)NCc2c(C)cc(C)[nH]c2=O)c1C)C1CCOCC1 [EPZ-6438]
Summary of the method: as §1

Bendamustine = compound: Cn1c(CCCC(=O)O)nc2cc(N(CCCl)CCCl)ccc21 [Bendamustine]
Summary of the method: as §1

Etoposide = compound: COc1cc([C@@H]2c3cc4c(cc3[C@@H](O[C@@H]3O[C@@H]5CO[C@@H](C)O[C@H]5[C@H](O)[C@H]3O)[C@H]3COC(=O)[C@H]23)OCO4)cc(OC)c1O [Etoposide]
Summary of the method: as §1

Selinexor = compound: O=C(/C=C\n1cnc(-c2cc(C(F)(F)F)cc(C(F)(F)F)c2)n1)NNc1cnccn1 [Selinexor]
Summary of the method: as §1

Midostaurin hydrate = compound: CO[C@@H]1[C@H](N(C)C(=O)c2ccccc2)C[C@H]2O[C@]1(C)n1c3ccccc3c3c4c(c5c6ccccc6n2c5c31)C(=O)NC4 [Midostaurin hydrate]
Summary of the method: as §1

SGC 0946 = compound: CC(C)N(CCCNC(=O)Nc1ccc(C(C)(C)C)cc1)C[C@H]1O[C@@H](n2cc(Br)c3c(N)ncnc32)[C@H](O)[C@@H]1O [SGC 0946]
Summary of the method: as §1

Roscovitine = compound: CC[C@H](CO)Nc1nc(NCc2ccccc2)c2ncn(C(C)C)c2n1 [Roscovitine]
Summary of the method: as §1

Entospletinib = compound: c1cn2cc(-c3ccc4cn[nH]c4c3)nc(Nc3ccc(N4CCOCC4)cc3)c2n1 [Entospletinib]
Summary of the method: as §1

Palbociclib = compound: CC(=O)c1c(C)c2cnc(Nc3ccc(N4CCNCC4)cn3)nc2n(C2CCCC2)c1=O [Palbociclib]
Summary of the method: as §1

Barasertib = compound: CCN(CCCOc1ccc2c(Nc3cc(CC(=O)Nc4cccc(F)c4)[nH]n3)ncnc2c1)CCOP(=O)(O)O [Barasertib]
Summary of the method: as §1

## primary AML patient cells (S012)
CPI-169; 0.024 µM
  viability: 1.04
CPI-169; 0.12 µM
  viability: 1.08
CPI-169; 0.6 µM
  viability: 1.07
CPI-169; 3 µM
  viability: 1.06
CPI-169; 15 µM
  viability: 1.09
Tofacitinib; 0.024 µM
  viability: 1.03
Tofacitinib; 0.12 µM
  viability: 0.954
Tofacitinib; 0.6 µM
  viability: 1.03
Tofacitinib; 3 µM
  viability: 1.05
Tofacitinib; 15 µM
  viability: 1.01
Everolimus; 0.0032 µM
  viability: 0.872
Everolimus; 0.016 µM
  viability: 0.854
Everolimus; 0.08 µM
  viability: 0.841
Everolimus; 0.4 µM
  viability: 0.866
Everolimus; 2 µM
  viability: 0.888
EPZ-6438; 0.024 µM
  viability: 1.15
EPZ-6438; 0.12 µM
  viability: 1.07
EPZ-6438; 0.6 µM
  viability: 1.02
EPZ-6438; 3 µM
  viability: 1.06
EPZ-6438; 15 µM
  viability: 1.09
Bendamustine; 0.032 µM
  viability: 1
Bendamustine; 0.16 µM
  viability: 1.11
Bendamustine; 0.8 µM
  viability: 1
Bendamustine; 4 µM
  viability: 1.05
Bendamustine; 20 µM
  viability: 1.03
Etoposide; 0.032 µM
  viability: 0.994
Etoposide; 0.16 µM
  viability: 1
Etoposide; 0.8 µM
  viability: 0.948
Etoposide; 4 µM
  viability: 1.02
Etoposide; 20 µM
  viability: 0.908
Selinexor; 0.008 µM
  viability: 1.06
Selinexor; 0.04 µM
  viability: 1.07
Selinexor; 0.2 µM
  viability: 0.993
Selinexor; 1 µM
  viability: 0.937
Selinexor; 5 µM
  viability: 0.925
Midostaurin hydrate; 0.024 µM
  viability: 0.909
Midostaurin hydrate; 0.12 µM
  viability: 0.982
Midostaurin hydrate; 0.6 µM
  viability: 1.08
Midostaurin hydrate; 3 µM
  viability: 1.03
Midostaurin hydrate; 15 µM
  viability: 0.989
SGC 0946; 0.024 µM
  viability: 1.09
SGC 0946; 0.12 µM
  viability: 1.14
SGC 0946; 0.6 µM
  viability: 0.959
SGC 0946; 3 µM
  viability: 1.08
SGC 0946; 15 µM
  viability: 0.886
Roscovitine; 0.032 µM
  viability: 1.1
Roscovitine; 0.16 µM
  viability: 1.11
Roscovitine; 0.8 µM
  viability: 1.1
Roscovitine; 4 µM
  viability: 1.06
Roscovitine; 20 µM
  viability: 0.918
Entospletinib; 0.024 µM
  viability: 1.06
Entospletinib; 0.12 µM
  viability: 0.999
Entospletinib; 0.6 µM
  viability: 0.967
Entospletinib; 3 µM
  viability: 1.04
Entospletinib; 15 µM
  viability: 1.04
Palbociclib; 0.024 µM
  viability: 1.04
Palbociclib; 0.12 µM
  viability: 1.02
Palbociclib; 0.6 µM
  viability: 0.984
Palbociclib; 3 µM
  viability: 0.98
Palbociclib; 15 µM
  viability: 0.814
Barasertib; 0.0008 µM
  viability: 0.95
Barasertib; 0.004 µM
  viability: 0.946
Barasertib; 0.02 µM
  viability: 0.901
Barasertib; 0.1 µM
  viability: 0.968
Barasertib; 0.5 µM
  viability: 1

## primary DLBCL patient cells (S076)
CPI-169; 0.024 µM
  viability: 1.04
CPI-169; 0.12 µM
  viability: 1.04
CPI-169; 0.6 µM
  viability: 1.07
CPI-169; 3 µM
  viability: 0.993
CPI-169; 15 µM
  viability: 1.05
Tofacitinib; 0.024 µM
  viability: 0.916
Tofacitinib; 0.12 µM
  viability: 0.864
Tofacitinib; 0.6 µM
  viability: 0.818
Tofacitinib; 3 µM
  viability: 0.823
Tofacitinib; 15 µM
  viability: 0.824
Everolimus; 0.0032 µM
  viability: 0.937
Everolimus; 0.016 µM
  viability: 0.888
Everolimus; 0.08 µM
  viability: 0.891
Everolimus; 0.4 µM
  viability: 0.887
Everolimus; 2 µM
  viability: 0.855
EPZ-6438; 0.024 µM
  viability: 1.13
EPZ-6438; 0.12 µM
  viability: 1.09
EPZ-6438; 0.6 µM
  viability: 1.18
EPZ-6438; 3 µM
  viability: 1.17
EPZ-6438; 15 µM
  viability: 1.03
Bendamustine; 0.032 µM
  viability: 0.945
Bendamustine; 0.16 µM
  viability: 1.1
Bendamustine; 0.8 µM
  viability: 1.08
Bendamustine; 4 µM
  viability: 0.965
Bendamustine; 20 µM
  viability: 0.759
Etoposide; 0.032 µM
  viability: 0.882
Etoposide; 0.16 µM
  viability: 1.05
Etoposide; 0.8 µM
  viability: 0.81
Etoposide; 4 µM
  viability: 0.901
Etoposide; 20 µM
  viability: 0.551
Selinexor; 0.008 µM
  viability: 0.97
Selinexor; 0.04 µM
  viability: 0.943
Selinexor; 0.2 µM
  viability: 0.819
Selinexor; 1 µM
  viability: 0.563
Selinexor; 5 µM
  viability: 0.331
SGC 0946; 0.024 µM
  viability: 1.15
SGC 0946; 0.12 µM
  viability: 1.16
SGC 0946; 0.6 µM
  viability: 0.962
SGC 0946; 3 µM
  viability: 1.06
SGC 0946; 15 µM
  viability: 0.534
Entospletinib; 0.024 µM
  viability: 1.05
Entospletinib; 0.12 µM
  viability: 0.954
Entospletinib; 0.6 µM
  viability: 0.927
Entospletinib; 3 µM
  viability: 0.979
Entospletinib; 15 µM
  viability: 1.05
Palbociclib; 0.024 µM
  viability: 1.14
Palbociclib; 0.12 µM
  viability: 1.14
Palbociclib; 0.6 µM
  viability: 0.991
Palbociclib; 3 µM
  viability: 0.647
Palbociclib; 15 µM
  viability: 0.221
